pEC50: −log10 of the molar value. Like-named read-outs stand apart in the source and are kept apart here.
What was measured:
Type in all cases: cell-based
AncSR2-LBD = test: luciferase reporter gene assay, Gal4-DBD fusion of AncSR2-LBD in CHO-K1 cells, activation; conditions: for pEC50: AncSR2, representative dose activation curves (Fig. S4) and Table S5 sections c-i; for activation of AncSR2 (in words): luciferase reporter
Source text: To experimentally test these hypotheses, we synthesized cDNAs for the AncSR1 and AncSR2 LBD protein sequences, expressed them as Gal4-DBD fusion constructs, and characterized their sensitivity to hormones using luciferase reporter gene assays. […] It was unresponsive to a broad array of androgens, progestagens, and corticosteroids, as well as cholesterol (Figure 2A, Figure S3).
For AncSR2, we identified all plausible alternate reconstructions (those with posterior probability >0.20 excluding biochemically similar K/R, D/E, S/T, and I/L differences) and introduced each alternate state individually into the AncSR2 background using the Quikchange Mutagenesis kit (Stratagene), verified clones by sequencing, and repeated the activation assays with each version of AncSR2 (Figure S6). The ML AncSR2 sequence reconstructed on the ML tree had high baseline activation in the absence of ligand; this phenotype is almost certainly an artifact, because constitutive baseline activity is not present in any of AncSR2's extant descendants; it is well-established that some amino acid replacements can cause nuclear receptors to become constitutive by marginally stabilizing the active conformation in the absence of hormone. […] The “constitutive” Leu79 state is weakly supported on the ML tree (PP = 0.59), and has no support (PP = 0.00) on the phylogeny that is most parsimonious in terms of gene duplications and losses; in contrast, the “non-constitutive” state Met79 has PP = 0.41 on the ML tree and PP = 1.00 on the rearranged gene duplication/loss tree (Figure S12, Table S8). The AncSR2 sequence used for all experiments reported in the text therefore contains state Met79. The other alternate reconstructions were then reintroduced into this AncSR2 sequence: none qualitatively changed the receptor's sensitivity to the various classes of steroid hormones, except for A171V, which conferred constitutive activity (Figure S6).

AncSR1-LBD = test: luciferase reporter gene assay, Gal4-DBD fusion of AncSR1-LBD in CHO-K1 cells, activation; conditions: for activation of AncSR1 (in words): luciferase reporter; for activation (in words): fold activation at 10^-6 M, Fig. S5C
Source text: To experimentally test these hypotheses, we synthesized cDNAs for the AncSR1 and AncSR2 LBD protein sequences, expressed them as Gal4-DBD fusion constructs, and characterized their sensitivity to hormones using luciferase reporter gene assays.

AncSR1_Alt2 = test: luciferase reporter assay, alternative reconstruction AncSR1_Alt2; conditions: for activation (in words): Alt2, fold activation at 10^-6 M, Fig. S5C; for pEC50: Alt2, Fig. S5B
Source text: (§1) To determine the robustness of functional inferences to statistical uncertainty in the reconstruction of AncSR1 and AncSR2, we used two approaches. AncSR1 had too many ambiguously reconstructed sites to examine each such residue individually, so we computationally sampled from the posterior probability distribution of reconstructed amino acid states to generate a cloud of possible ancestral sequences, each harboring a large number of alternate states. Specifically, we generated 1,000,000 possible ancestral sequences by sampling from the posterior probability distribution of states at each site. […] We synthesized these five radically alternative ancestral reconstructions de novo and repeated the functional assays.
(§2) A) Distribution of posterior probabilities of 1 million protein sequences assembled by sampling amino acid states at each site from the posterior probability distribution for AncSR1 LBD. The ML reconstruction (AncSR1-ML) and the five alternative sequences with the highest posterior probability (Alt1-Alt5) in the 1 million samples are […]
(§3) The column height and error bars indicate the mean and SEM of three independent experiments, respectively. […]

AncSR1_Alt5 = test: luciferase reporter assay, alternative reconstruction AncSR1_Alt5; conditions: for activation (in words): Alt5, fold activation at 10^-6 M, Fig. S5C; for pEC50: Alt5, Fig. S5B
Source text: as §1, §2, §3

AncSR1_Alt4 = test: luciferase reporter assay, alternative reconstruction AncSR1_Alt4; conditions: for activation (in words): Alt4, fold activation at 10^-6 M, Fig. S5C; for pEC50: Alt4, Fig. S5B
Source text: as §1, §2, §3

AncSR1_Alt1 = test: luciferase reporter assay, alternative reconstruction AncSR1_Alt1; conditions: for activation (in words): Alt1, fold activation at 10^-6 M, Fig. S5C; for pEC50: Alt1, Fig. S5B
Source text: as §1, §2, §3

AncSR1_Alt3 = test: luciferase reporter assay, alternative reconstruction AncSR1_Alt3; conditions: for activation (in words): Alt3, fold activation at 10^-6 M, Fig. S5C; for pEC50: Alt3, Fig. S5B
Source text: as §1, §2, §3

[1] = AncSR1, Table S5 section b, pairs H1/H2: 18/19, 22/20, 8/23, listed as given under Hormone 1
[2] = AncSR1, representative dose activation curves (Fig. S3) and Table S5 section b
[3] = AncSR2, Table S5 section e, pairs H1/H2: 18/17, 9/6, 15/13, listed as given under Hormone 1
[4] = AncSR2, Table S5 section i, pairs H1/H2: 8/6, 17/13, 18/15, listed as given under Hormone 1
[5] = AncSR2, Table S5 section h, pairs H1/H2: 3/4, 6/7, listed as given under Hormone 1
[6] = AncSR2, Table S5 section d, pairs H1/H2: 13/6, 17/8, 15/9, 16/10, 19/23, listed as given under Hormone 1

With `C[C@@H](O)[C@H]1CC[C@H]2[C@@H]3CCC4=CC(=O)CC[C@]4(C)[C@H]3CC[C@]12C` [20β hydroxyprogesterone] the pEC50 (AncSR2-LBD; read-out: EC50) was 8.00.

`CC/C(=C(/CC)c1ccc(O)cc1)c1ccc(O)cc1` [Diethylstilbestrol] was tested, and the “activation of AncSR1 (in words)” value (AncSR1-LBD) was “activated” and the “activation of AncSR2 (in words)” value (AncSR2-LBD) was “not activated”.

`O=c1c(-c2ccc(O)cc2)coc2cc(O)cc(O)c12` [Genistein] was tested, and the “activation of AncSR1 (in words)” value (AncSR1-LBD) was “activated” and the “activation of AncSR2 (in words)” value (AncSR2-LBD) was “not activated”.

In the case of `C[C@]12CCC(=O)C=C1CC[C@@H]1[C@@H]2[C@@H](O)C[C@]2(C=O)[C@@H](C(=O)CO)CC[C@@H]12` [aldosterone], the pEC50 (AncSR2-LBD; read-out: EC50) was 8.72.

`CC12CCC3C4CCC(O)C=C4CCC3C1CCC2O` (centres unmarked) [bolandiol] was tested, and the “Ratio H1/H2 of EC50, preference for aromatized A-ring” value (AncSR1-LBD; [1]) was 36.02, the “Ratio H2/H1 of EC50, preference for aromatized A-ring” value (AncSR1-LBD; [1]) was 0.03 and the pEC50 (AncSR1-LBD; [2]) was 5.75. For the same molecule, the “Ratio H1/H2 of EC50, preference for 3-hydroxy vs. 3-keto group” value (AncSR2-LBD; [3]) was 0.29, the “Ratio H2/H1 of EC50, preference for 3-hydroxy vs. 3-keto group” value (AncSR2-LBD; [3]) was 3.45 and the “Ratio H1/H2 of EC50, preference for 19-H vs. 19-methyl group” value (AncSR2-LBD; [4]) was 0.08. For the same molecule, the “Ratio H2/H1 of EC50, preference for 19-H vs. 19-methyl group” value (AncSR2-LBD; [4]) was 13.10 and the pEC50 (AncSR2-LBD) was 7.70.

For `CC(C)CCC[C@@H](C)[C@H]1CC[C@H]2[C@@H]3CC=C4C[C@@H](O)CC[C@]4(C)[C@H]3CC[C@]12C` [cholesterol], the “activation of AncSR1 (in words)” value (AncSR1-LBD) was “unresponsive” and the “activation of AncSR2 (in words)” value (AncSR2-LBD) was “completely unresponsive”.

`C[C@]12C[C@H](O)[C@H]3[C@@H](CCC4=CC(=O)CC[C@@]43C)[C@@H]1CC[C@@H]2C(=O)CO` [corticosterone] was tested, and the “Ratio H1/H2 of EC50, preference for 17a-H group vs. -OH group” value (AncSR2-LBD; [5]) was 0.03, the “Ratio H2/H1 of EC50, preference for 17a-H group vs. -OH group” value (AncSR2-LBD; [5]) was 31.61 and the pEC50 (AncSR2-LBD; read-out: EC50) was 9.51.

For `C[C@]12CCC(=O)C[C@@H]1CC[C@@H]1[C@@H]2CC[C@]2(C)[C@@H](O)CC[C@@H]12` [dihydrotestosterone], the “activation (in words)” value (AncSR1_Alt2) was “none are activated”, the “activation (in words)” value (AncSR1-LBD; AncSR1-ML) was “none are activated” and the “activation (in words)” value (AncSR1_Alt5) was “none are activated”. For the same molecule, the pEC50 (AncSR2-LBD) was 6.76, the “activation (in words)” value (AncSR1_Alt4) was “none are activated” and the “activation (in words)” value (AncSR1_Alt1) was “none are activated”. For the same molecule, the “activation (in words)” value (AncSR1_Alt3) was “none are activated”.

In the case of `C[C@]12CC[C@@H]3c4ccc(O)cc4CC[C@H]3[C@@H]1C[C@@H](O)[C@@H]2O` [estriol], the pEC50 (AncSR1_Alt2) was 5.65, the pEC50 (AncSR1-LBD; [2]) was 6.01 and the pEC50 (AncSR1-LBD; AncSR1-ML, Fig. S5B) was 6.01. It also gave a pEC50 (AncSR1_Alt5) of 6.41, a pEC50 (AncSR1_Alt4) of 5.70 and a pEC50 (AncSR1_Alt1) of 6.49. The pEC50 (AncSR1_Alt3) was 6.83.

Molecule `C[C@]12CC[C@@H]3c4ccc(O)cc4CC[C@H]3[C@@H]1CCC2=O` [estrone] has a pEC50 (AncSR1_Alt2) of 5.52, a pEC50 (AncSR1-LBD; [2]) of 7.16 and a pEC50 (AncSR1-LBD; AncSR1-ML, Fig. S5B) of 6.68. It also gave a pEC50 (AncSR1_Alt5) of 6.65, a pEC50 (AncSR1_Alt4) of 6.07 and a pEC50 (AncSR1_Alt1) of 6.88. It also gave a pEC50 (AncSR1_Alt3) of 7.38.

In the case of `CC(=O)[C@H]1CC[C@H]2[C@@H]3CCC4=CC(=O)CC[C@]4(C)[C@H]3CC[C@]12C` [progesterone], the “activation (in words)” value (AncSR1_Alt2) was “none are activated”, the “activation (in words)” value (AncSR1-LBD; AncSR1-ML) was “none are activated” and the “activation (in words)” value (AncSR1_Alt5) was “none are activated”. For the same molecule, the pEC50 (AncSR2-LBD; read-out: EC50) was 8.26, the “activation (in words)” value (AncSR1_Alt4) was “none are activated” and the “activation (in words)” value (AncSR1_Alt1) was “none are activated”. For the same molecule, the “activation (in words)” value (AncSR1_Alt3) was “none are activated”.

For `C[C@]12CC[C@H]3[C@@H](CCC4=CC(=O)CC[C@@]43C)[C@@H]1CC[C@@H]2O` [testosterone], the “activation (in words)” value (AncSR1_Alt2) was “none are activated”, the “activation (in words)” value (AncSR1-LBD; AncSR1-ML) was “none are activated” and the “activation (in words)” value (AncSR1_Alt5) was “none are activated”. The “Ratio H1/H2 of EC50, preference for 17-acetyl vs. 17-hydroxy group” value (AncSR2-LBD; [6]) was 21.09, the “Ratio H2/H1 of EC50, preference for 17-acetyl vs. 17-hydroxy group” value (AncSR2-LBD; [6]) was 0.05 and the pEC50 (AncSR2-LBD) was 6.94. The “activation (in words)” value (AncSR1_Alt4) was “none are activated”, the “activation (in words)” value (AncSR1_Alt1) was “none are activated” and the “activation (in words)” value (AncSR1_Alt3) was “none are activated”.

From paper PMC3499368, “Evolution of Minimal Specificity and Promiscuity in Steroid Hormone Receptors” (PLoS Genetics, 2012)
